{"source": "patent US11692194B2", "about": "“Modulating expression of polypeptides via new gene switch expression systems” (Precigen, Inc., priority 2017, dated 2023)", "key": {"[1]": {"tested_on": "gene switch components VP16/RxR and Gal4/EcR controlling mbIL-15 in CD19 CAR-T cells", "experiment": "T cell activation and ligand specific control of mbIL-15 (NFAT6-IL2 promoter driven gene switch), flow cytometry", "assay_type": "cell-based, human", "procedure": "Sleeping Beauty transposons were designed to stably express CD19-specific CAR, a cell tag as well as gene switch-controlled mbIL-15. Expression of one or both of gene switch components (e.g. VP16/RxR and Gal4/EcR) were performed under the control of a T cell activation specific promoter. In this example, a T cell activation dependent promoter generated by 6×NFAT response element fused to minimal IL-2 promoter (NFAT6-IL2 promoter) was utilized to drive expression of gene switch components—VP16-RxR and/or Gal4-EcR fusion proteins for conditional expression of mbIL-15. When components of the gene switch are under the control of NFAT6-IL2 promoter, expression of mbIL-15 requires two conditions to be met: 1) T cells are activated; and 2) activator ligand, veledimex, to be present. SB transposons construct combinations shown in FIG. 20A were transfected along with SB11 transposase in donor T cells. […]\nThe following day (day 1) cells were counted, and CAR expression was measured by flow cytometry. […]\nFor flow cytometry analysis to assess expression of various markers and gene(s) of interest cells were gently resuspended and cell number and viability were measured using Trypan blue exclusion method with the Countess instrument. Cell diameter size was also recorded. […] The prepared antibody cocktails and associated fluorescence minus one/isotype control were added to stain the cell samples, and then the samples were incubated on ice for 30 min. […] All samples were run on a LSR II flow cytometer, a Fortessa X-20 flow cytometer (BD Biosciences) or iQue Screener Plus (Intellicyt) and data was analyzed using FlowJo V10 (TreeStar, Ashland, Oreg.) or iQue Screener software. […]\nNon-activated or activated CAR-T cells were harvested and either 100 nM veledimex or DMSO (to keep DMSO concentration constant in both cultures) was added to the cultures. […] CAR and mbIL-15 expression was quantified in either resting (FIG. 20B) or activated T cells in presence of absence of veledimex (FIG. 20C: ConA 1 μg/mL; ConA 5 μg/mL: FIG. 20D, PMA/Ionomycin: FIG. 20E)."}, "[2]": {"tested_on": "inducible IL-12 constructs (XON-61 or XON-62) in EGFRvIII-CAR-T cells", "experiment": "Veledimex ON-OFF cycling of IL-12 in EGFRvIII-CAR-T cells", "assay_type": "cell-based", "procedure": "For each ON-OFF cycle, veledimex was first added (ON) at previously mentioned concentrations (typically between 20-100 nM) to cell cultures for 2-3 days. An aliquot of cells was harvested and analyzed for expression (ON) of various proteins by flow cytometry and/or ELISA at noted time points. Remaining cell culture was then washed and resuspended in complete medium without veledimex (OFF) and cultured for up to 5 days. Aliquots of cells were harvested and analyzed for expression (OFF) at times mentioned by flow cytometry and/or ELISA as noted above. Veledimex ON-OFF cycle(s) can be repeated again with remaining cell culture by repeating the process.\nThe effect of repeated treatments and withdrawals of veledimex to EGFRvIII-CAR-T cells harboring an inducible IL-12 gene was determined in vitro both in the presence and absence of antigen specific T cell activation by co-culture with AaPCs. In the first cycle (ON-OFF) of ligand treatment, CAR-T cells (10^6/ml) expanded ex vivo by four successive rounds of stimulation with EGFRvIII^+ AaPCs were treated with DMSO or veledimex and cultured in the presence or absence of AaPCs in media containing IL-21 and IL-2. After 48 hours post-treatment, cells were washed thoroughly to remove ligand and cultured in a new culture vessel in media containing IL-21 and IL-2 for 5 days. Culture supernatants harvested between 24-120 hours post-treatment were then analyzed for expression of IL-12 and IFNγ.\nIn the second cycle (ON-OFF) of ligand treatment, CAR-T cells from cultures treated with DMSO or veledimex in the presence of AaPCs in cycle 1 were collected at 5 days after withdrawal of veledimex (in cycle 1) and subjected to a second cycle of ligand treatment with DMSO or veledimex in the presence or absence of antigen specific T cell activation by co-culture with AaPCs. After 48 hours post-treatment, cells were washed thoroughly to remove ligand and cultured in a new culture vessel in media containing IL-21 plus IL-2 for 5 days. Culture supernatants harvested between 24-120 hours post-treatment were then analyzed for expression of IL-12 and IFNγ."}}, "note": "“Also recorded” adds a separate entry of the source."}
{"smiles": "CCC[C@@H](N(NC(=O)c1cccc(OC)c1CC)C(=O)c1cc(C)cc(C)c1)C(C)(C)C", "note": "[veledimex, N-[(1R)-1-(1,1-dimethylethyl)butyl]-N′-(2-ethyl-3-methoxybenzoyl)-3,5-dimethylbenzohydrazide]", "values": [{"measurement": "mbIL-15 expression in activated CAR-T cells with gene switch components under NFAT6-IL-2 promoter", "setting": "[1]; constructs #3, 4 and 6, ConA 1 or 5 μg/mL or PMA/Ionomycin, 100 nM veledimex", "value": "exhibited expression of mbIL-15; also recorded: dependent on T cell activation (with addition of ConA) and presence of veledimex"}, {"measurement": "mbIL-15 expression in absence of T cell activation", "setting": "[1]; resting CAR-T cells, 100 nM veledimex, at least 24 hours", "value": "only CAR-T cells that harbor transposons for expression of gene switch components (e.g. VP16/RxR and Gal4/EcR) under a constitutive promoter were able to express mbIL-15"}, {"measurement": "levels of mbIL-15 expression versus level of T cell activation", "setting": "[1]; veledimex at fixed concentration, ConA 1 vs 5 μg/mL", "value": "increased with level of T cells activation"}, {"measurement": "IL-12 induction in cycle 2 after veledimex versus DMSO in cycle 1", "setting": "[2]; 48 h post-ligand treatment in cycle 2, with EGFRvIII^+ AaPCs", "value": "increased IL-12 induction"}, {"measurement": "IL-12 expression relative to DMSO", "setting": "[2]; cycle 1, culture supernatants at 48 h post-treatment", "value": "increase in IL-12 expression"}, {"measurement": "levels of IL-12 induction with versus without antigen-specific stimulation", "setting": "[2]; cycle 1, presence vs absence of AaPCs", "value": "enhanced in the presence of AaPC-mediated antigen-specific stimulation; also recorded: significantly lower in the absence of antigen-specific stimulation"}, {"measurement": "control of IL-12 expression over two cycles of ligand treatment", "setting": "[2]; prolonged culture, repeated addition and withdrawal", "value": "can be turned ON and OFF repeatedly; also recorded: can regulate IL-12 expression"}, {"measurement": "IL-12 expression after withdrawal of veledimex", "setting": "[2]; withdrawal at 48 h post-treatment, presence and absence of AaPCs", "value": "reduction of IL-12 expression; also recorded: gradually reduced back to the baseline levels; also recorded: went down to baseline levels"}]}
